In PubChem BioAssay (NCI) one finds TGI data, which are given here for 13 molecules.

Assay in all cases: DTP human tumour cell line panel, 48 h
Test [1] relates to 786-0 renal.
The test system of test [2] is A498 renal.
Test [3] relates to ACHN renal.
In test [4] the test system is BT-549 breast.
In test [5] the test system is CAKI-1 renal.
The subject of test [6] is HOP-92 NSCLC.
Test [7] has as its system MDA-MB-435.
For test [8], the system named is MOLT-4 leukemia.
For test [9], the system named is NCI-H522 lung.
Test [10] relates to NCI/ADR-RES ovarian.
In test [11] the test system is SF-295 CNS.

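Protocol summary: plate cells (96-well), add compound at 5 concentrations, incubate 48 h, interpolate endpoints linearly. Definition used: TGI = concentration required for complete inhibition of growth.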 Where only a bound is given, the exact number is not on record here.

`C=C(C)C(=O)O[C@H]1CC2(CO)O[C@@H]2CC/C(COC(C)=O)=C/C2OC(=O)C(=C)[C@@H]21` (some centres undefined): the TGI was over 31.6 µM in test [1]; over 100 µM in test [2]; over 63.6 µM in test [3]; 52.1 µM in [4]; over 58.8 µM in test [5]; 51.9 µM in test [6]. Moreover, the TGI in test [7] is over 61.3 µM; in test [8], 29.8 µM; in test [9], 31.6 µM; in test [10] it was over 100 µM; in test [11], over 100 µM.
On to `CC(=O)OCC1(CNc2nc(N)ncc2C#N)CC(CCc2ccccc2)C1` (centres undefined), for which the TGI in [1] is over 100 µM; in test [2], over 100 µM; in test [3] it was over 100 µM; in test [4], over 100 µM; in test [5], over 100 µM; in test [6] it was 49.9 µM. The TGI in [7], in test [8], in test [9], in test [10] and in test [11] was over 100 µM each time.
As for `CCCOC1OC(CS(=O)(=O)O)C(OC(C)=O)C(OC(C)=O)C1OC(C)=O` (centres undefined), the TGI in [2], in [4], in test [5], in test [6], in [7] and in test [8] was over 100 µM throughout. Also, the TGI in [10] and in [11] was over 100 µM each time.
Regarding `Cc1ccc(S(=O)(=O)CC2CCCn3c2c(C#N)c2ccccc23)cc1` (centres undefined), the TGI in [1], in [2], in test [3], in [4], in test [5] and in test [6] was over 100 µM in each case. Moreover, the TGI in test [7], in [8], in test [9], in test [10] and in [11] was over 100 µM each time.
`COC(=O)c1c(C)cccc1C1CN=NC12Cc1cccc(C)c1C2=O` (centres undefined): the TGI was over 100 µM in [1]; over 100 µM in [2]; over 100 µM in test [3]; 88.6 µM in test [4]; over 100 µM in test [5]; 47.6 µM in test [6]. Moreover, the TGI in test [7] was over 100 µM; in [9] it was 75.7 µM; in test [10] it was over 100 µM.
On to `Cc1cc(C)c(C#N)c(SC(=S)NC(=O)c2ccccc2)n1`, for which the TGI in test [1], in test [2], in [3], in test [4], in test [5] and in test [6] was over 100 µM each time. Moreover, the TGI in [7], in test [8], in [9] and in [10] was over 100 µM throughout.
For `Cn1c(=O)[nH]n(-c2ccc3ccccc3c2)c1=O`, the TGI in test [1], in test [2], in [3], in test [4], in test [5] and in test [6] was over 100 µM throughout. Besides, the TGI in test [7], in test [9], in test [10] and in [11] was over 100 µM each time.
Regarding `O=C(O)c1cc(Nc2c(O)c3c(c(O)c2Cl)C(=O)C=CC3=O)ccc1O`, the TGI in test [1], in [2], in [3], in test [4], in test [5] and in test [6] was over 10 µM each time. For the same molecule, the TGI in [7], in test [8], in test [10] and in test [11] was over 10 µM each time.
Take `Cc1ccc(C(=O)NN=C(/N=N/c2cccc(C)c2)c2ccc(N(C)C)cc2)cc1`: the TGI in test [1], in test [3], in test [4], in test [5], in test [6] and in test [7] was over 100 µM each time. The TGI in test [8], in test [9], in [10] and in test [11] was over 100 µM each time.
On to `CC(C)CCCC(C)[C@H]1CC[C@H]2NCCCC[C@]12C` (some centres undefined), for which the TGI in test [1] amounted to 10.5 µM; in test [2], 26.6 µM; in [3], 4.78 µM; in [4] it was 29.9 µM; in test [5], 22.8 µM; in [6], 15.5 µM. Moreover, the TGI in test [7] worked out at 4.1 µM; in test [8], 6.32 µM; in test [10], 20.7 µM; in test [11], 5.2 µM.
For `C=C(C)[C@@H]1CC[C@]2(C(=O)OC3OC(COC4OC(CO)C(OC5OC(C)C(O)C(O)C5O)C(O)C4O)C(O)C(O)C3O)CC[C@]3(C)[C@H](CC[C@@H]4[C@@]5(C)CC[C@H](O)[C@@](C)(CO)[C@@H]5CC[C@]43C)[C@@H]12` (some centres undefined), the TGI in [1] was over 10 µM; in test [2], over 10 µM; in [3] it was over 10 µM; in [4], over 8.43 µM; in test [5], over 9.66 µM; in [6], over 6.7 µM. Besides, the TGI in test [7] was over 10 µM; in [9], 9.56 µM; in test [10], over 10 µM; in [11], over 8.59 µM.
`Nc1cc2ncnc(Nc3cccc(Br)c3)c2cn1`: the TGI is over 100 µM in test [1]; 36.1 µM in [2]; over 100 µM in test [3]; over 100 µM in [4]; over 100 µM in [5]; over 100 µM in test [6]. The TGI was over 100 µM in test [7], over 100 µM in test [8], over 100 µM in test [10] and 71.8 µM in test [11].
Take `O=c1oc2ccccc2c(O)c1C(c1ccc(O)cc1)c1c(O)c2ccccc2oc1=O`: the TGI in test [1], in [2], in test [3], in [4], in test [5] and in test [6] was over 100 µM each time. The TGI was over 100 µM in test [7], 62.8 µM in [9] and over 100 µM in test [10].
